Assay results published in patent US8058270B2, “Dihydropteridinones for the treatment of cancer diseases” (Boehringer Ingelheim International GmbH, priority 2004, dated 2011).

What was measured:
[1] = system: cultivated human tumour cells; experiment: Alamar Blue cytotoxicity assay (general); format: cell-based; settings: summary in words, see Table 1
From the text: Alamar Blue™ Cytotoxicity Assays
The Alamar Blue™ assay is designed to measure quantitatively the proliferation of cells by incorporating a fluorometric/colorimetric growth indicator based on the detection of metabolic activity.
Cell culture: The various human tumor cell lines can be purchased from American Type Culture Collection (ATCC) or the German Collection of Microorganisms and Cell Cultures (DSMZ) and cultivated in 75 to 175 cm^2 tissue culture flasks in the medium indicated by the supplier. The cells are maintained at 37° C. and 5% CO2 in a humidified atmosphere, with an appropriate split ratio. Logarithmically growing cells are used for the assays.
Assay conditions: On day one of the experiment 1000-4000 cells (in 100 μl medium) are seeded into each well of a sterile 96-well plate. The number of cells used is dependent on the growth rate and size of the cells. Eight wells on each plate are left free to accommodate for controls (4 wells for medium plus reduced AlamarBlue™, and 4 wells for medium plus oxidized AlamarBlue™). The plates are kept in the incubator overnight. On day two of the experiment serial dilutions of the inhibitor are prepared in medium containing 0.1% DMSO. […] After 4-5 h of incubation, the plates are measured in a fluorescence spectrophotometer (excitation 530 nm, emission 590 nm, slits 15, integrate time 0.1). […]

[2] = system: cultivated human tumour cells; experiment: FACS analysis on PI stained tumor cells, cell cycle progression (general); format: cell-based; settings: summary in words, see Table 1
From the text: FACS Analysis on PI Stained Tumor Cells
Propidium iodine (PI) binds stoichiometrically to double stranded DNA and thus is a suitable agent to measure the DNA content of cells in order to determine the percentage of cells residing in various cell cycle stages (G0/1-, S- and G2/M-phases), whereas cells in G0 or G1 phase do have a diploid DNA content (2N) cells in G2 and M-phase (mitosis) do have a doubled (4N) DNA content.
Cell culture: The various human tumor cell lines can be purchased from American Type Culture Collection (ATCC) or the German Collection of Microorganisms and Cell Cultures (DSMZ) and cultivated in 75 to 175 cm^2 tissue culture flasks in the medium indicated by the supplier. […]
Data analysis: Analysis of the DNA content of the cells can be performed using a FACS analyzer equipped with an argon laser (500 mW, emission 488 nm) and the use of the DNA Cell Quest analysis software (Beckton Dickinson). The logarithmic PI fluorescence is determined in a band-pass filter (Beckton Dickinson 585/43). Quantification of the cell populations residing in the individual cell cycle phases (e.g. G0/G1-, S- and G2/M-phases) is done with the ModFit LT software package from Becton Dickinson. An EC50 value for cells arrested at the G2/M-phase of the cell cycle is calculated by using a sigmoidal curve analysis program (Graph Pad Prism version 3.03).

SMILES: CC[C@@H]1C(=O)N(C)c2cnc(Nc3ccc(C(=O)NC4CCN(C)CC4)cc3OC)nc2N1C1CCCC1 [Example 46, 4-[[(7R)-8-cyclopentyl-7-ethyl-5,6,7,8-tetrahydro-5-methyl-6-oxo-2-pteridinyl]amino]-3-methoxy-N-(1-methyl-4-piperidinyl)-benzamide]
- activity in cytotoxicity tests on cultivated human tumour cells [1]: good to very good activity
- inhibitory effect on cell cycle progression by FACS analysis [2]: good to very good activity
